Data reported in patent publication US12318370B2, “Processes for preparing solid state forms” (Varda Space Industries, Inc., priority 2022, dated 2025).

Columns and labels:
Type in all cases: physicochemical
Manual grinding, XRPD = details: mortar and pestle, five cycles of 2 minutes (10 minutes total)
[1] = Temperature and humidity stress test, 40° C./75% RH, XRPD; details: for Change of solid form under stress, in words: 40° C. and 75% RH, XRPD at 30, 60 and 96 days; for Solid form after stress test / Time at which conversion to Form I was detected: 40° C./75% RH; for Solid form after stress test: XRPD
Protocol: XRPD was measured at 30, 60, and 96 days (FIG. 15).

[2] = Longer-term stability at ambient conditions, Raman; details: 5 weeks and up to 23 weeks
Protocol: Additionally, a longer-term stability study was performed.

[3] = Short-term thermal stability, Raman microscopy; details: sequentially 15 minutes at 50° C., 70° C. and 90° C., Raman after each
Protocol: Short-term thermal stability experiments were conducted by holding the material from example 1f sequentially for 15 minutes at 50° C., 15 minutes at 70° C., and 15 minutes at 90° C. The sample was analyzed by Raman microscopy after each temperature exposure. […] FIG. 10 compares the short-term thermal stability results to the reference spectra from FIG. 9.

[4] = Dynamic vapor sorption (DVS); details: 5% to 95% RH
Source text: No hysteresis was observed. DVS isotherms were characterized using a VTI SGA-100 Vapor Sorption Analyzer. The sample was not dried prior to analysis. Sorption and desorption isotherms were collected over a range from 5% to 95% RH at 10% RH increments under a dry air purge. The equilibrium criterion used for analysis was less than 0.0100%^0/weight change in five minutes with a maximum equilibration time of three hours and a 2-minute data logging interval. Data were not corrected for the initial moisture content of the sample.

[5] = Compression at 700 lbs, XRPD; details: XRPD before and after, listed as ritonavir Form III

SMILES | Solid form after manual grinding (Manual grinding, XRPD; listed as Amorphous material) | Change of solid form under stress, in words [1] | Solid form after stress test ([1]; 30 days) | Solid form after stress test ([1]; 60 days) | Solid form after stress test ([1]; 96 days) | Time at which conversion to Form I was detected ([1]; listed as amorphous ritonavir) | Solid form after manual grinding (Manual grinding, XRPD) | Solid form after storage at ambient conditions [2] | Solid form after short-term thermal exposure [3] | Hygroscopicity [4] | Solid form after manual grinding (Manual grinding, XRPD; listed as ritonavir Form III) | Solid form after stress test ([1]; 96 days, listed as ritonavir Form III) | Time at which conversion to Form I was detected ([1]; listed as Form III ritonavir) | Time at which conversion to Form I was detected ([1]; listed as ritonavir Form III) | Change of solid form after compression [5]
CC(C)c1nc(CN(C)C(=O)N[C@H](C(=O)N[C@@H](Cc2ccccc2)C[C@H](O)[C@H](Cc2ccccc2)NC(=O)OCc2cncs2)C(C)C)cs1 (single isomer, unassigned) [Amorphous, 10-hydroxy-2-methyl-5-(1-methylethyl)-1-[2-(1-methylethyl)-4-thiazolyl]-3,6-dioxo-8,11-bis(phenylmethyl)-2,4,7,12-tetraazatridecan-13-oic acid, 5-thiazolylmethyl ester, [SS-(5R*,8R*,10R*,1R*)]] | remained unchanged | No change | Form I | Form I | Form I | ≤ 30 days | – | – | – | – | – | – | – | – | –
CC(C)c1nc(CN(C)C(=O)N[C@H](C(=O)N[C@@H](Cc2ccccc2)C[C@H](O)[C@H](Cc2ccccc2)NC(=O)OCc2cncs2)C(C)C)cs1 (single isomer, unassigned) [Form I, 10-hydroxy-2-methyl-5-(1-methylethyl)-1-[2-(1-methylethyl)-4-thiazolyl]-3,6-dioxo-8,11-bis(phenylmethyl)-2,4,7,12-tetraazatridecan-13-oic acid, 5-thiazolylmethyl ester, [SS-(5R*,8R*,10R*,1R*)]] | – | No change | Form I | Form I | Form I | – | Mixture of amorphous and Form I | – | – | – | – | – | – | – | –
CC(C)c1nc(CN(C)C(=O)N[C@H](C(=O)N[C@@H](Cc2ccccc2)C[C@H](O)[C@H](Cc2ccccc2)NC(=O)OCc2cncs2)C(C)C)cs1 (single isomer, unassigned) [Form II, 10-hydroxy-2-methyl-5-(1-methylethyl)-1-[2-(1-methylethyl)-4-thiazolyl]-3,6-dioxo-8,11-bis(phenylmethyl)-2,4,7,12-tetraazatridecan-13-oic acid, 5-thiazolylmethyl ester, [SS-(5R*,8R*,10R*,1R*)]] | – | – | – | – | – | – | mixture of amorphous and Form II | – | – | – | – | – | – | – | –
CC(C)c1nc(CN(C)C(=O)N[C@H](C(=O)N[C@@H](Cc2ccccc2)C[C@H](O)[C@H](Cc2ccccc2)NC(=O)OCc2cncs2)C(C)C)cs1 (single isomer, unassigned) [Form III, 10-hydroxy-2-methyl-5-(1-methylethyl)-1-[2-(1-methylethyl)-4-thiazolyl]-3,6-dioxo-8,11-bis(phenylmethyl)-2,4,7,12-tetraazatridecan-13-oic acid, 5-thiazolylmethyl ester, [SS-(5R*,8R*,10R*,1R*)]] | – | – | Form III | Form III + Form I | Form III + Form I | – | – | remained unchanged | remained as Form III ritonavir | not hygroscopic | amorphous with traces of Form III | presence of Form I peaks | 60 days | 60 days | no change
